Reference: patent publication US20100136034A1, “NOVEL MULTIMERIC MOLECULES, A PROCESS FOR PREPARING THE SAME AND THE USE THEREOF FOR MANUFACTURING MEDICINAL DRUGS” (CENTRE NATIONAL DE LA RECHERCHE SCIENTIFIQUE, priority 2007, published 2010)
Non-standard residues stand in square brackets, D forms with d. No end group written: not given here. Ahx = NCCCCCC(=O)O

How the values were obtained:
[1] = tested on: Burkitt's lymphoma RAJI cells; assay: Induction of apoptosis in Burkitt's lymphoma RAJI cells (drop in mitochondrial transmembrane potential, DiOC6(3), flow cytometry); type: cell-based; settings: 16 hours incubation with CD40L analog, FIG. 5A
Description: Burkitt's lymphoma (RAJI) was cultured in RPMI 1640 medium (Cambrex Bioscience, Verviers, Belgium) supplemented with 10% decomplemented foetal calf serum (FBS) and gentamycin (10 μg/ml). For assaying apoptosis, cells (1×10^6/ml) were incubated at 37° C. in 96-well plates, at the specified concentrations of CD40L analogs, in a final volume of 200 μl. After incubation for 16 hours, cell apoptosis was measured as described herein below.
To this end, cells were pulsed with DiOC6(3) (Interchim, Montluçon, France)) at a final concentration of 40 nM for the last 45 minutes of culturing.
Cells were subsequently washed, resuspended in 300 μl of PBS and analyzed by flow cytometry. Results (FIG. 5A) are expressed in percentage of specific apoptosis according the following formula: % of specific apoptosis=[(% of dead treated cells−% of dead control cells)×100]/(100−% de dead control cells).
Cells were analyzed by a FACSCalibur® instrument. At least 25000 pulse is events were acquired for each experiment using the CellQuest 3.3 software (Becton Dickinson, Pont de Claix, France) and data were analyzed using the WinMDI 2.8 software (Joseph Trotter, Scripps Research Institute, http://facs.scripps.edu/software.html).

murine spleen B cells = assay: Spleen B cell proliferation ([3H]-thymidine uptake); type: cell-based, BALB/c mice; settings: ligand alone, without anti-CD40 antibody 3/23; 72 hours; FIG. 5B
Description: Spleens were surgically removed from BALB/c mice aged from 5 to 12 weeks. Spleen B cells were prepared by positive selection using magnetic beads coated with monoclonal anti-CD19 antibodies (MACS, Milteny biotech, Germany). This fraction contains over 95% of B220^+ cells. B cells (3×10^6/ml) were next cultured in RPMI 1640 medium supplemented with 10% complement depleted FBS, gentamycin (10 μg/ml), 25 mM HEPES and […] β-mercaptoethanol in presence of CD40L analogs. Cells were pulsed with 1 μCi/well of tritiated thymidine (ICN, Irvine, Calif.) for the last 20 hours of culturing and the uptake of [^3H]-thymidine as expressed in cpm was measured after 72 hours using a Matrix 9600 model direct 13 counter (Packard, Meriden, Conn.). Results (FIG. 5B) are expressed as a stimulation index corresponding to cpm obtained for cultures with CD40L analogs divided by cpm obtained for cultures without CD40L analogs. Mice used in this study were raised in our animal housing facilities which are licensed by the french veterinary administration under number D-67-482-2.

L41: dimeric ligand by click chemistry: dimerized macrocycle IV.25 coupled to pentapeptide P1 (Lys-Gly-Tyr-Tyr-Ahx), deprotected (peptide KGYY[Ahx]; chain AKKKAK; also: dimerized macrocycle IV.25 (cyclised hexapeptide) joined by click chemistry (triazole) to pentapeptide P1 (Lys-Gly-Tyr-Tyr-Ahx), D-residues and non-natural residues not placed)
percentage of specific apoptosis [1]: induces a Burkitt lymphoma (RAJI) specific apoptosis percentage | B cell proliferation (stimulation index, [3H]-thymidine uptake) (murine spleen B cells): induces alone murine spleen B cell proliferation
